Experimental data published in ChEMBL document CHEMBL3588781, “HPLC-NMR and HPLC-MS Profiling and Bioassay-Guided Identification of Secondary Metabolites from the Australian Plant Haemodorum spicatum” (2015).
Active and inactive are the calls of the source. The rule behind the calls is not given here.

Legend:
[1] = test system: Escherichia coli; test: Antimicrobial activity against Escherichia coli ATCC 25922 assessed as microbial growth inhibition at 1 mg/ml incubated overnight at 37 degC; type: functional; conditions: for zone of inhibition at 1000 µg/mL: read-out: IZ
[2] = test system: Staphylococcus aureus; test: Antimicrobial activity against Staphylococcus aureus ATCC 25923 assessed as microbial growth inhibition at 1 mg/ml incubated overnight at 37 degC; type: functional; conditions: for zone of inhibition at 1000 µg/mL: read-out: IZ
[3] = test system: Staphylococcus aureus; test: Antimicrobial activity against methicillin-resistant Staphylococcus aureus 344/2-32 assessed as microbial growth inhibition at 1 mg/ml incubated overnight at 37 degC; type: functional; conditions: for zone of inhibition at 1000 µg/mL: read-out: IZ
[4] = test system: Pseudomonas aeruginosa; test: Antimicrobial activity against Pseudomonas aeruginosa ATCC 27853 assessed as microbial growth inhibition at 1 mg/ml incubated overnight at 37 degC; type: functional; conditions: for zone of inhibition at 1000 µg/mL: read-out: IZ
[5] = test system: Streptococcus pyogenes; test: Antimicrobial activity against Streptococcus pyogenes 345/1 assessed as microbial growth inhibition at 1 mg/ml incubated overnight at 37 degC; type: functional; conditions: for zone of inhibition at 1000 µg/mL: read-out: IZ
[6] = test system: Candida albicans; test: Antimicrobial activity against Candida albicans ATCC 10231 assessed as microbial growth inhibition at 1 mg/ml incubated overnight at 37 degC; type: functional, organism-based

SMILES | inhibition zone (IZ) [1] | zone of inhibition at 1000 µg/mL [2] [mm] | zone of inhibition at 1000 µg/mL [3] [mm] | zone of inhibition at 1000 µg/mL [4] [mm] | zone of inhibition at 1000 µg/mL [5] [mm] | zone of inhibition at 1000 µg/mL [1] [mm] | inhibition zone (IZ) [2] | inhibition zone (IZ) [3] | inhibition zone (IZ) [6] | inhibition zone (IZ) [4] | inhibition zone (IZ) [5]
CC1(C)S[C@@H]2[C@H](NC(=O)[C@H](N)c3ccccc3)C(=O)N2[C@H]1C(=O)O [AMPICILLIN] | inactive | 15 | 3 | 2 | 20 | – | – | – | – | – | –
COC1OC(=O)c2ccc(-c3ccccc3)c3c(O)c(O)cc1c23 (stereo unspecified) | – | – | – | 1 | 1 | 1 | inactive | inactive | inactive | – | –
COc1cc2ccc(=O)c3ccc4c5ccccc5oc1c4c23 | inactive | 1 | 1 | 3 | 3 | – | – | – | inactive | – | –
COc1cc(OC)c2ccc(-c3ccccc3)c3c2c1C=C(O)C3=O | – | 1 | 1 | 5 | 1 | 1 | – | – | inactive | – | –
COC1=Cc2cc(OC)c(OC)c3ccc(-c4ccccc4)c(c23)C1=O | – | – | 1 | 1 | 1 | 1 | inactive | – | inactive | – | –
COC1=Cc2cc(=O)oc3ccc(-c4ccccc4)c(c23)C1=O | – | – | – | – | – | 1 | inactive | inactive | inactive | inactive | inactive
COc1cc2cc(OC)c3oc4ccccc4c4ccc(c1=O)c2c34 | inactive | – | – | 4 | 2 | – | inactive | inactive | inactive | – | –
O=c1ccc2cc(O)c3oc4ccccc4c4ccc1c2c34 | inactive | – | – | 3 | 1 | – | inactive | inactive | inactive | – | –
COC(=O)Nc1nc2ccccc2[nH]1 | – | – | – | – | – | – | – | – | inactive | – | –
COC1=Cc2ccc(OC)c3ccc(-c4ccccc4)c(c23)C1=O | – | – | – | 3 | 1 | 1 | inactive | inactive | inactive | – | –
COC1=Cc2cc(O)c(OC)c3ccc(-c4ccccc4)c(c23)C1=O | – | 1 | – | 1 | 1 | 1 | – | inactive | inactive | – | –
COc1cc2cc(O)c3oc4ccccc4c4ccc(c1=O)c2c34 | – | – | – | 5 | 2 | 1 | inactive | inactive | inactive | – | –
